According to US20260159482A1, “CRYSTAL FORM AND AMORPHOUS FORM OF CAREBASTINE P-TOLUENESULFONATE” (priority 2023, published 2026):
Structures can show the parent of a compound that is named as a salt. Where two headings read alike, the source gives them in different places.

Legend:
[1] = for AUC0-t / Cmax / T1/2 / Tmax / increase in AUC0-t compared with Comparative Example 1 / increase in AUC0-t compared with Comparative Example 2 / increase in Cmax compared with Comparative Example 1 / increase in Cmax compared with Comparative Example 2: male; for AUC0-t / Cmax / T1/2 / Tmax / Tmax compared with Comparative Example 2 / half-life (T1/2) compared with Comparative Example 2 / increase in AUC0-t compared with Comparative Example 1 / increase in AUC0-t compared with Comparative Example 2 / increase in Cmax compared with Comparative Example 1 / increase in Cmax compared with Comparative Example 2: dog, in vivo; for AUC0-t / Cmax / T1/2 / Tmax: po, 2.23 mg; for half-life (T1/2) compared with Comparative Example 1 / peak time (Tmax) compared with Comparative Example 1: vs ebastine
Method: Ebastine (Comparative Example 1), carebastine (Comparative Example 2), a crystal form of carebastine p-toluenesulfonate (Example 2) and an amorphous form of carebastine p-toluenesulfonate (Example X) were prepared into enteric capsules, respectively.
• Species: Beagle; • Level: normal level; • Animal number and gender: 8 males; • Age: […] old during grouping; • Body weight: the weight during grouping ranged from 8.90 to 10.3 kg, with an average of 10.0 kg.
Dose: in terms of carebastine, each group was dosed at equimolar dose, and appropriate amounts of compounds were weighed and filled into capsules. That is, the drug of carebastine in each capsule is 2.23 mg.
After the test compounds were filled into capsules, 2×4 crossover tests were carried out according to the table above. A 7-day elution period was counted from the start of administration. The corresponding test compounds were administered to each group in different test cycles.
All animals were fasted overnight (for 12 h or more) before each administration, and feeding was resumed 4 h after the administration. The animals had free access to drinking water.
Blood samples were collected at 0 h before administration, and at 10 min, 20 min, 30 min, 45 min, 1 h, 2 h, 3 h, 5 h, 6 h, 8 h, 10 h and 24 h after administration, for a total of 13 blood collection time points.
Approximately 2 mL of blood was collected from a forelimb vein at the set blood collection time points and placed in an EDTA-K2 anticoagulation tube. Whole blood samples were kept at room temperature for 1.5 h after the collection and then centrifuged (at 3000 g centrifugal force, 4° C.) for 10 min.
The concentration of carebastine in plasma was determined using liquid chromatography-mass spectrometry-mass spectrometry (HPLC-MS/MS).
The pharmacokinetic parameters of each group were calculated using the non-compartmental model with the WinNonlin software (version 8.3 or higher).

[2] = Stability study: influencing factors (high temperature, high humidity, light exposure), HPLC content; assay type: physicochemical; conditions: for Content, 0 day: HPLC external standard; for Content, High humidity, 30 days: high humidity (RH80%); for Content, High temperature, 30 days: high temperature (60° C.); for Content, Light exposure, 30 days: light exposure (5000 Lux)
Method: 3 parts of each of the samples, carebastine (Comparative Example 2), the crystal form of carebastine p-toluenesulfonate (Example 2), and the amorphous form of carebastine p-toluenesulfonate (Example X), were weighed and placed in a weighing bottle, respectively, and each group of samples was placed under conditions of high temperature (60° C.), high humidity (RH80%) and light exposure (5000 Lux). Then, the samples were taken for detection after 30 days.
Detection method: An appropriate amount of each sample was taken, weighed precisely, dissolved with acetonitrile and quantitatively diluted into a solution containing about 0.08 mg of sample per 1 ml. High performance liquid chromatography (HPLC) was used, with octadecylsilane-bonded silica gel as filler, water-acetonitrile (1:1) as mobile phase, a detection wavelength of 256 nm, a column temperature of 35° C. and an injection volume of 10 μl. Each sample solution was injected into the liquid chromatograph instrument, and the chromatograms were recorded. The content of carebastine was calculated by an external standard method, and the impurity content was calculated by a peak area normalization method.

[3] = Hygroscopicity study (weight gain at 25° C., RH 80%, 24 h); assay type: physicochemical
Method: • (1) The day prior to the test, a dry glass weighing bottle (with an outer diameter of 50 mm and a height of 15 mm) with a lid was placed in a suitable constant temperature dryer (the lower part of which holds a saturated solution of ammonium chloride or ammonium sulphate) at 25° C.±1° C. or an artificial climate chamber (at a temperature of 25° C.±1° C. and a relative humidity of 80%±2%), and the weight (m1) of the bottle with the lid was precisely weighed. • (2) An appropriate amount of the sample to be tested was evenly laid in the weighing bottle, with a thickness of generally about 1 mm, and the weight (m2) of the bottle with the lid was precisely weighed. • (3) The weighing bottle was kept open and placed together with the lid under constant temperature and humidity for 24 h. • (4) The weighing bottle was covered with the lid, and the weight (m3) was precisely weighed. • (5) Percentage of weight gain=(m3−m2)/(m2−m1)×100%.

SMILES | AUC0-t ([1]; beagle) [ng·h/mL] | Cmax ([1]; beagle) [ng/mL] | T1/2 ([1]; beagle) [h] | Tmax ([1]; beagle) [h] | Content, 0 day [2] [%] | Content, High humidity, 30 days ([2]; 30 days) [%] | Content, High temperature, 30 days ([2]; 30 days) [%] | Content, Light exposure, 30 days ([2]; 30 days) [%] | Percentage of weight gain (%) [3] [%] | half-life (T1/2) compared with Comparative Example 1 ([1]; beagle) | peak time (Tmax) compared with Comparative Example 1 ([1]; beagle) | Tmax compared with Comparative Example 2 [1] | half-life (T1/2) compared with Comparative Example 2 [1] | increase in AUC0-t compared with Comparative Example 1 ([1]; beagle) | increase in AUC0-t compared with Comparative Example 2 ([1]; beagle) | increase in Cmax compared with Comparative Example 1 ([1]; beagle) | increase in Cmax compared with Comparative Example 2 ([1]; beagle) | further results
CC(C)(C(=O)O)c1ccc(C(=O)CCCN2CCC(OC(c3ccccc3)c3ccccc3)CC2)cc1 [Comparative Example 3, carebastine hydrochloride, reference compound] |  |  |  |  |  |  |  |  |  |  |  |  |  |  |  |  |  | Percentage of weight gain (%) ([3]; hydrochloride): 15.9%
CC(C)(C(=O)O)c1ccc(C(=O)CCCN2CCC(OC(c3ccccc3)c3ccccc3)CC2)cc1.Cc1ccc(S(=O)(=O)O)cc1 [Example X, carebastine p-toluenesulfonate] |  |  |  |  | 98.59 | 98.58 | 98.54 | 98.51 | 0.3 | prolonged | significantly shorter | essentially the same | prolonged | ~31% | ~17% | ~46% | ~37% | 

Now from value to compound, other results behind:

AUC0-t ([1]; beagle) [ng·h/mL] | Cmax ([1]; beagle) [ng/mL] | T1/2 ([1]; beagle) [h] | Tmax ([1]; beagle) [h] | Content, 0 day [2] [%] | Content, High humidity, 30 days ([2]; 30 days) [%] | Content, High temperature, 30 days ([2]; 30 days) [%] | Content, Light exposure, 30 days ([2]; 30 days) [%] | Percentage of weight gain (%) [3] [%] | half-life (T1/2) compared with Comparative Example 1 ([1]; beagle) | peak time (Tmax) compared with Comparative Example 1 ([1]; beagle) | Tmax compared with Comparative Example 2 [1] | half-life (T1/2) compared with Comparative Example 2 [1] | increase in AUC0-t compared with Comparative Example 1 ([1]; beagle) | increase in AUC0-t compared with Comparative Example 2 ([1]; beagle) | increase in Cmax compared with Comparative Example 1 ([1]; beagle) | increase in Cmax compared with Comparative Example 2 ([1]; beagle) | SMILES | further results
749 ± 127 | 179 ± 85.7 | 4.06 ± 1.19 | 2.25 ± 0.7 |  |  |  |  |  |  |  |  |  |  |  |  |  | CC(C)(C)c1ccc(C(=O)CCCN2CCC(OC(c3ccccc3)c3ccccc3)CC2)cc1 [Comparative Example 1, ebastine] | 
840 ± 161 | 191 ± 51.4 | 3.74 ± 2.02 | 0.82 ± 0.52 | 99.18 | 98.11 | 98.12 | 87.28 | 6 |  |  |  |  |  |  |  |  | CC(C)(C(=O)O)c1ccc(C(=O)CCCN2CCC(OC(c3ccccc3)c3ccccc3)CC2)cc1 [Comparative Example 2, 2-(4-(4-(4-(diphenylmethoxy)piperidine-1-yl)butyryl)phenyl)-2-methylpropanoic acid, reference compound] | content decrease under high temperature and high humidity ([2]; 30 days, high temperature and high humidity): more than 1.0%; content decrease under light exposure ([2]; 30 days, light exposure): more than 10%; content of the maximum single impurity ([2]; after 30 days of influencing factor tests, peak area normalization): more than 0.5%
 |  |  |  | 99.42 | 99.42 | 99.43 | 99.39 | −0.1 | prolonged | significantly shorter | essentially the same | prolonged | about 55% | about 38% | about 65% | about 55% | CC(C)(C(=O)O)c1ccc(C(=O)CCCN2CCC(OC(c3ccccc3)c3ccccc3)CC2)cc1.Cc1ccc(S(=O)(=O)O)cc1 [Example 2, carebastine p-toluenesulfonate] | Cmax and AUC0-t compared with Example X ([1]; beagle, vs amorphous form): slightly higher; T1/2 compared with Example X ([1]; beagle, vs amorphous form): slightly longer
